From patent publication US20120252853A1, “Positive allosteric modulators of nicotinic acetylcholine receptor” (H. Lundbeck A/S, priority 2011, published 2012)

target: human α7 receptor (Homo sapiens, UniProt P36544); test: α7 NNR flux assay (FDSS Ca assay); format: cell-based; conditions: positive allosteric modulation; rat GH4C1 cell line stably expressing human α7; acetylcholine 20 μM; % modulation relative to PNU-120596 set to 100%
Description: In this version of the assay, the human α7 receptor is stably expressed in the rat GH4C1 cell line. The assay was used to identify positive allosteric modulators (PAMs) of the α7 receptor. Activation of the channel was measured by loading cells with the calcium-sensitive fluorescent dye Calcium-4 (Assay kit from Molecular Devices), and then measuring real-time changes in fluorescence upon treatment with test compounds.
The cell line ChanClone GH4C1-nAChRalpha7 from Genionics was seeded from frozen stock in 384-well plates in culture media 2-3 days before experiment to form an approximately 80% confluent layer on the day of experiment.
The cell culture were split into “22.5 cm×22.5 cm”-plates with approximately 100×10^3 cells/cm^2. After four days incubation in a humidified incubator at 37° C. and 5% CO2, it had grown to an 80-90% confluent layer, and the cells were harvested.
Two or three days before the experiment the cells were seeded in 384 well plates from Greiner bio-one (781946, CELLCOAT, Poly-D-Lysine, black, μClear).
The cells were seeded in 384 well plates with 30 μL/well (30000 cells/well) while stirring the cell suspension or otherwise preventing the cells from precipitating. The plates were incubated at room temperature for 30-45 minutes. The plates were placed in incubator for two days (37° C. and 5% CO2).
The loading buffer was 5% v/v Calcium-4 Kit and 2.5 mM Probenecid in assay buffer.
Culture media were removed from the cell plates and 20 μL loading buffer was added in each well. The cell plates were placed in trays and incubated 90 minutes in the incubator (37° C.). Thereafter the plates were incubated 30 minutes at room temperature, still protected from light. Now the cell plates were ready to run in the Functional Drug Screening System (FDSS) The assay buffer was HBSS with 20 mM HEPES, pH 7.4 and 3 mM CaCl2.
200 nL 10 mM compound solution in DMSO was diluted in 50 μL assay buffer. The final test concentrations in the cell plates were 20-10-5-2.5-1.25-0.625-0.312-0.156-0.078-0.039 μM. Assay buffer and 3 μM PNU-120596 were used for control:
The agonist acetylcholine was added to a final concentration of 20 μM (˜EC100). In the FDSS7000 the Ex480-Em540 was measured with 1 second intervals. The baseline was made of 5 frames before addition of test compounds, and 95 frames more were made before addition of acetylcholine. The measurement stopped 30 frames after the 2nd addition. Raw data for each well were collected as “the maximum fluorescence count” in the interval 100-131 seconds and as “the average fluorescence count” in the interval 96-100 seconds. The positive allosteric modulation in the 2nd addition was the enhancement of agonist response with test compound compared to agonist alone.
Results were calculated as % modulation of test compound compared to the reference PNU-120596 set to 100%.

Sequence of human α7 receptor (P36544 23-502): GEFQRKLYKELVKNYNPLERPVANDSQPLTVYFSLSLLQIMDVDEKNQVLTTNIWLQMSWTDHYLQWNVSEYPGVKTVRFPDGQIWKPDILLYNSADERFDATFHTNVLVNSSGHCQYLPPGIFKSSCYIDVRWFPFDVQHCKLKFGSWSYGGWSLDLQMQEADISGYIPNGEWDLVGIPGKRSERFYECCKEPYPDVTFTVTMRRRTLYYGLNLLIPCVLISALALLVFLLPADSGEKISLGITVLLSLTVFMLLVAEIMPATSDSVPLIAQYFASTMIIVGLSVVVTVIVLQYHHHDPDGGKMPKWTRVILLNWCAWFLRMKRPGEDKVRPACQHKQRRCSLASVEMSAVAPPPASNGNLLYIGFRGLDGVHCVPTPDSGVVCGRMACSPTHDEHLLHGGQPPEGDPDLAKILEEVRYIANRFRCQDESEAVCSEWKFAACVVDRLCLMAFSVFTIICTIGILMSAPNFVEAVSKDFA

Row | EC50 [µM] | Structure (SMILES)
1 | 5.3 | Cc1cc2cc([C@@H](C)NC(=O)c3cnn(C4COC4)c3)ccc2[nH]1 [Compound 52, N-[(1R)-1-(2-methyl-1H-indol-5-yl)ethyl]-1-(oxetan-3-yl)pyrazole-4-carboxamide]
2 | 6 | Cc1cc(C(=O)N[C@H](C)c2ccc3[nH]c(C)cc3c2F)on1 [Compound 53, N-[(1R)-1-(4-fluoro-2-methyl-1H-indol-5-yl)ethyl]-3-methyl-isoxazole-5-carboxamide]
3 | > 20 | Cc1cc(C(=O)N[C@@H](C)c2ccc3[nH]c(C)cc3c2F)on1 [Compound 54, N-[(1S)-1-(4-fluoro-2-methyl-1H-indol-5-yl)ethyl]-3-methyl-isoxazole-5-carboxamide]
4 | 7.3 | Cc1cc(C(=O)NCc2ccc3[nH]c(C)cc3c2)n(C)n1 [Compound 55, 2,5-dimethyl-N-[(2-methyl-1H-indol-5-yl)methyl]pyrazole-3-carboxamide]
5 | 4.3 | Cc1cc2cc(CNC(=O)c3onc(C)c3Cl)ccc2[nH]1 [Compound 56, 4-chloro-3-methyl-N-[(2-methyl-1H-indol-5-yl)methyl]isoxazole-5-carboxamide]
6 | 3.87 | Cc1cc2cc(CNC(=O)c3cccn3C)ccc2[nH]1 [Compound 57, 1-methyl-N-[(2-methyl-1H-indol-5-yl)methyl]pyrrole-2-carboxamide]
7 | 8.57 | Cc1cc(C(=O)NCc2ccc3[nH]ccc3c2)on1 [Compound 58, N-(1H-indol-5-ylmethyl)-3-methyl-isoxazole-5-carboxamide]
8 | 7.7 | Cc1c(C(=O)NCc2ccc3[nH]ccc3c2)sc(=O)n1C [Compound 59, N-(1H-indol-5-ylmethyl)-3,4-dimethyl-2-oxo-thiazole-5-carboxamide]
9 | 4.1 | Cc1cc2cc(CNC(=O)c3sc(=O)n(C)c3C)ccc2[nH]1 [Compound 60, 3,4-dimethyl-N-[(2-methyl-1H-indol-5-yl)methyl]-2-oxo-thiazole-5-carboxamide]
10 | 9.1 | Cc1cc(C(=O)N[C@@H](C)c2ccc3[nH]c(C)cc3c2)on1 [Compound 62, 3-methyl-N-[(1S)-1-(2-methyl-1H-indol-5-yl)ethyl]isoxazole-5-carboxamide]
11 | 5.8 | Cc1cc(C(=O)NCc2ccc3c(ccn3C(F)F)c2)on1 [Compound 63, N-[[1-(difluoromethyl)indol-5-yl]methyl]-3-methyl-isoxazole-5-carboxamide]
12 | 9.3 | Cc1cc(C(=O)NCc2ccc3c(c2)cc(C)n3C(F)F)on1 [Compound 64]
13 | 2.1 | O=C(NCc1ccc2c(ccn2C(F)F)c1)c1cnn(CC(F)(F)F)c1 [Compound 68, N-[[1-(difluoromethyl)indol-5-yl]methyl]-1-(2,2,2-trifluoroethyl)pyrazole-4-carboxamide]
14 | 4.2 | Cc1cc2cc(CNC(=O)c3cnn(CC(F)(F)F)c3)ccc2n1C(F)F [Compound 69, N-[[1-(difluoromethyl)-2-methyl-indol-5-yl]methyl]-1-(2,2,2-trifluoroethyl)pyrazole-4-carboxamide]
15 | 9.4 | Cc1cc2cc(CNC(=O)c3cc(CC(F)(F)F)no3)ccc2n1C(F)F [Compound 70, N-[[1-(difluoromethyl)-2-methyl-indol-5-yl]methyl]-3-(2,2,2-trifluoroethyl)isoxazole-5-carboxamide]
16 | 2.9 | Cc1cc2cc(CNC(=O)c3cnn(C(C)C)c3)ccc2[nH]1 [Compound 71, 1-isopropyl-N-[(2-methyl-1H-indol-5-yl)methyl]pyrazole-4-carboxamide]
17 | 7.6 | O=C(NCc1ccc2c(ccn2C(F)F)c1)c1cc(CC(F)(F)F)no1 [Compound 72, N-[[1-(difluoromethyl)indol-5-yl]methyl]-3-(2,2,2-trifluoroethyl)isoxazole-5-carboxamide]
18 | 2.8 | [2H]C([2H])([2H])c1cc2cc(CNC(=O)c3cc(C)no3)ccc2[nH]1 [Compound 73, 3-methyl-N-[[2-(trideuteriomethyl)-1H-indol-5-yl]methyl]isoxazole-5-carboxamide]
